Source: US20050032841A1, “Therapeutic compositions and methods of treating glycolipid storage related disorders” (priority 1999, published 2005)
Where “and” joins values, the source holds several entries; their conditions need not be identical. Equal entries are not always repeated.

Tests used:
GSL synthesis = details: compared with NB-DNJ; cited from earlier work
α-glucosidase I and II = details: cited from earlier work
[1] = Serum enzyme activity and half life of Ceredase after i.v. injection in mice, with or without NB-DNJ pre-treatment; type: in vivo; parameters: unit not given here; details: mice treated with NB-DNJ 4800 mg/kg/day for 5 weeks
Procedure: A group of mice were treated with NB-DNJ at 4800 mg/kg/day for 5 weeks. After a low intravenous dose (5-10 U/kg) of Ceredase™ (Genzyme Corporation) administered as a single injection via the tail vein, serum enzyme activity was measured by taking sequential serum samples from the tail vein to monitor enzyme activity over time. Ceredase™ is a modified form of β glucocerebrosidase.

Sandhoff mice = assay: Survival of Sandhoff mice treated with NB-DNJ and/or bone marrow transplantation; type: in vivo; details: BMT at two weeks of age, NB-DNJ 600 mg/kg/day from 9.5-11 weeks of age
MPS IIIA mice = assay: Murine model of MPS IIIA: brain immunocytochemistry (GM2, GM3) and auto-fluorescent material; type: in vivo
From the text: Colonies of mutant mice expressing the MPS IIIA phenotype have been described, and have been validated by a number of criteria as an authentic model of the disease (Stanley, P et al (1999) Glycobiology 9: 1389-1396). MPS IIIA mice display clinical signs of the disease around 6 months of age with decreased activity, scruffy coat, abdominal distention, hunched posture and waddling gait. […] Death results by 18 months or less.
The brains of MPS mice are grossly normal. […] White matter and Purkinje cells display axonal spheroids. Anti-heparan sulfate immunostaining indicates accumulation of heparan sulfate fragments in the cerebral cortex of MPS IIIA animals.
MPS IIIA mice were treated with 1200 mg/kg/day, beginning at 4 weeks of age, with NB-DNJ. Brain samples from animals were taken at 8 weeks of age (4 weeks of treatment with NB-DNJ) and subjected to immunocytochemistry with an anti-GM2 ganglioside-specific monoclonal antibody. […] Upper cortex, ii. Lower cortex; B: NB-DNJ Treated, i. Upper cortex, ii. Lower cortex.
The hippocampus (CA4-Dentate Gyrus) of the MPS IIIA animals was also examined for staining by a GM2 Ganglioside-specific monoclonal antibody.
Cerebral cortex samples from animals were also taken at 40 weeks of age (36 weeks of treatment with NB-DNJ) and subjected to immunocytochemistry with an anti-GM3 ganglioside-specific monoclonal antibody. Anti-GM2 staining was similar to anti-GM3 staining in both treated and untreated animals, respectively (data not shown).
The brains of animals affected by MPS IIIA, as well as some other of the mucopolysaccharidoses, store heterogeneous auto-fluorescent material in addition to glycolipids. Thus, the cerebral cortex of MPS IIIA animals either left untreated or treated for 36 weeks with NB-DNJ were also examined for the presence of auto-fluorescent material.

[2] = tested on: in vitro model of Gaucher disease; details: cited from earlier work
[3] = tested on: mouse model of Tay-Sachs disease; details: asymptomatic Tay-Sachs mouse model; cited from earlier work

## CCCCN1C[C@H](O)[C@@H](O)[C@@H](O)[C@H]1CO [NB-DGJ, N-butyldeoxygalactonojirimycin]
GSL synthesis
  Inhibition of GSL synthesis in vitro: as effectively as NB-DNJ
α-glucosidase I and II
  Inhibition of α-glucosidase I and II: does not inhibit

## CCCCN1C[C@H](O)[C@@H](O)[C@H](O)[C@H]1CO [NB-DNJ, N-butyldeoxynojirimycin]
[1]; Ceredase 5-10 U/kg i.v., group mean
  Peak Activity of Ceredase in serum, mean ± sem: 27.4 ± 7.2
[1]; Ceredase 5-10 U/kg single i.v. injection, individual mice
  Peak Activity of Ceredase in serum: 13.9 and 32.1 and 24.1 and 13.1 and 21.0 and 68.3 and 19.2
Sandhoff mice
  Survival (longest survivor): 170 days
MPS IIIA mice; NB-DNJ 1200 mg/kg/day
  Pathological features in the model of MPS IIIA: markedly reduces the pathological features
MPS IIIA mice; NB-DNJ 1200 mg/kg/day from 4 weeks of age, anti-GM2/GM3 immunocytochemistry
  Glycolipid storage in neuronal cells: markedly reduced
MPS IIIA mice; NB-DNJ 1200 mg/kg/day, 36 weeks of treatment
  Storage of auto-fluorescent material in cerebral cortex: reduced the storage of auto-fluorescent material
[2]
  Storage in in vitro model of Gaucher disease: shown to prevent storage
[3]
  GM2 accumulation in the brain and associated neuropathology: reduce GM2 accumulation in the brain and prevent the neuropathology
